These results are taken from paper PMC6858848 (Bioorganic & medicinal chemistry letters, 2019).

One series relates to hepG2 cells. The following applies: CellTiter-Glo. For orientation: Cellular ATP, detected with luciferase, serves as a proxy for viable cell number.
For the next series, the system named is 40 targets, mostly GPCRs. The note with it: 10 μM, NIMH PDSP.
For series [1] the following is noted: cited from earlier work.
The next series concerns the target Kv7.2 channels (Homo sapiens, UniProt O43526). As to the kind of experiment: Kv7.2 thallium flux assay in HEK 293 cells. The class given is cell-based. The following applies: for fold lower potency in Kv7.2 assay relative to DMP 543: compared with DMP 543.
The nature of another series: Acid stability. It is filed as physicochemical. The following applies: HPLC peak areas (254 nm) after heating at 60°C in 1:1 MeCN:0.2N aq. HCl for 24 h, 0.3 mM.
Another series has as its target hERG channels (Homo sapiens, UniProt Q12809). Kind of series: hERG thallium flux assay in HEK 293 cells. The note with it: for hERG flux IC50: HEK 293 cells expressing hERG channels. In general terms: The hERG channel carries a current that helps repolarise heart muscle cells.
The next series deals with Alzheimer's patients. The following applies: cited from earlier work.
The subject of another series is ACh release. The note with it: read-out: ACh release EC50; cited from earlier work.
Series [2] concerns mouse model of Parkinson's disease. The following applies: cited from earlier work.

pEC50, pIC50: −log10 of the molar value. ≈ marks a conversion by molar mass, not a printed value. Where only a bound is given, the exact number is not on record here.

Chain of Kv7.2 channels (O43526 whole entry): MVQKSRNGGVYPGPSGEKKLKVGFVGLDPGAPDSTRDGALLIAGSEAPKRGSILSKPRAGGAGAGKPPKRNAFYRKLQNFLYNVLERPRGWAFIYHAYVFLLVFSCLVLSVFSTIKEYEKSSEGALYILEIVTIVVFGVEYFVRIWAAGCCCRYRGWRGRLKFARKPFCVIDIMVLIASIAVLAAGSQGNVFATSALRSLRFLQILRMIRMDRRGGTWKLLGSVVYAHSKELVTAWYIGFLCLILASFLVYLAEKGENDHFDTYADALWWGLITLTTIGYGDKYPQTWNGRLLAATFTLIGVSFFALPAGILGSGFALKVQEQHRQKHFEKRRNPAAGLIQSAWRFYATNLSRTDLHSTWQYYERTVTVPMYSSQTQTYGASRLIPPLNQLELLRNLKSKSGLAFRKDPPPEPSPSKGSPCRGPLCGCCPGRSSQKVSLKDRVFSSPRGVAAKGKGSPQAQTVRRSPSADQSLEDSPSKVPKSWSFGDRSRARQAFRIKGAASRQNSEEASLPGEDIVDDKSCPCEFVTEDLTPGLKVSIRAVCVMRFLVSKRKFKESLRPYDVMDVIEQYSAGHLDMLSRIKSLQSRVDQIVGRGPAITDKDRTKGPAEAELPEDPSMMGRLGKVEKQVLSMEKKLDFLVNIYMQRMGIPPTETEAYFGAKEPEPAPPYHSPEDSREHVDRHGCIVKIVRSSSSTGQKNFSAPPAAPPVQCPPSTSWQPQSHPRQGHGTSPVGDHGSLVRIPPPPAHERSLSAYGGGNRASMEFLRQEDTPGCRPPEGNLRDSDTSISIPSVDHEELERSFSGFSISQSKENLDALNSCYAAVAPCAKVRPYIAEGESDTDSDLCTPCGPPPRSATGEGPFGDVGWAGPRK
Chain of hERG channels (Q12809 whole entry): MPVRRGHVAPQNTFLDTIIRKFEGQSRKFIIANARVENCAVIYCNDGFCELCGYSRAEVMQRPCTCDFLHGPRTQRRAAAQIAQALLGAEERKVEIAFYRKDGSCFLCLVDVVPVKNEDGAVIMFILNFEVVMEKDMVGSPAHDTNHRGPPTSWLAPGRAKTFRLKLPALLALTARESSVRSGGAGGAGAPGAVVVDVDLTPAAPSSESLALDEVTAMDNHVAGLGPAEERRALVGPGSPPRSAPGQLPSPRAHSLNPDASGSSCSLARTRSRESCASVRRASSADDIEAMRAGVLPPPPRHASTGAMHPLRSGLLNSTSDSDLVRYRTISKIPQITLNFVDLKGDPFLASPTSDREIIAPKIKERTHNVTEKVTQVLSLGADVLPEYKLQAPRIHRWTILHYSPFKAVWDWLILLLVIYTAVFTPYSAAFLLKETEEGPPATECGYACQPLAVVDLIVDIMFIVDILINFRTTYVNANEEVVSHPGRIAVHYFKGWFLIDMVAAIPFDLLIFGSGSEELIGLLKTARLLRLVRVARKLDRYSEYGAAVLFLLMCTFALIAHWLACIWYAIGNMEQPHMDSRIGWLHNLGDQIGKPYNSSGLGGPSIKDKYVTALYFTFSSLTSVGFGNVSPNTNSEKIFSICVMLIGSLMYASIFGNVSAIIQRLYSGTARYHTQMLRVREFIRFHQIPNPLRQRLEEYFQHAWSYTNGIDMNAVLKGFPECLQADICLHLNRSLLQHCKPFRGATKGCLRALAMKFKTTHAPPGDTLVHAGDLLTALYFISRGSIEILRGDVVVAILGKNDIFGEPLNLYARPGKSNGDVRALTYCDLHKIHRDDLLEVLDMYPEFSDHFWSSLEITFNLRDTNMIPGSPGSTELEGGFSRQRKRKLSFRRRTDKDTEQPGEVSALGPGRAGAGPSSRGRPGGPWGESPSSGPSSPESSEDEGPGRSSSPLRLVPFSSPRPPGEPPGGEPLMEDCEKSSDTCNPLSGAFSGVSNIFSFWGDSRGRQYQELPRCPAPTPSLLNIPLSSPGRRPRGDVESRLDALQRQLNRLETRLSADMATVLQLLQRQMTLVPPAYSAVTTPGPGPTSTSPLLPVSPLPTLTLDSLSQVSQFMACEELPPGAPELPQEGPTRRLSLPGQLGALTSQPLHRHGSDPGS

`O=C1c2ccccc2C(Cc2ccnc(F)c2)(Cc2ccnc(F)c2)c2ccccc21` [DMP 543, 10,10-Bis[(2-Fluoro-4-Pyridinyl)Methyl]-9(10 H)-Anthracenone]: the “cytotoxicity CC50, hepG2 cells” value in the series on hepG2 cells is “low cytotoxicity”. In the series on 40 targets, mostly GPCRs, the “Off-target activities: number of targets (of 40) with >30% binding” value was found to be 6. Besides, in series [1], the aqueous solubility was 6 µM (≈ 2.47 µg/mL). Further, the kinetic solubility in “physchem” is 22 µM (≈ 9.07 µg/mL).

Take `O=C1c2ccccc2C(Cc2ccnnc2)(Cc2c(F)cncc2F)c2ccccc21` [JDP-107 (18)]: at Kv7.2 channels, the pIC50 was 6.74 and the “fold lower potency in Kv7.2 assay relative to DMP 543” value is on record as “approximately 3 fold”. Further, the “acid stability, percent remaining” value in the series “Acid stability” is recorded as “no degradation”. For the same molecule, the “Off-target activities: number of targets (of 40) with >30% binding” value with 40 targets, mostly GPCRs worked out at 5. For the same molecule, the pIC50 at hERG channels is under 4.49. In addition, the “hERG channel inhibition at 1 μM” value at hERG channels (1 μM, thallium flux) is listed as “no inhibition”.

On to `O=C1N(c2ccccc2)c2ccccc2C1(Cc1ccncc1)Cc1ccncc1` [Linopirdine, 3,3-Bis(4-Pyrindinylmethyl)-1-Phenylindolin-2-One], for which, in the series with Alzheimer's patients, the “efficacy as cognitive enhancer in phase 3 trial” value is “ineffective” and the “tolerability in phase 3 trial” value was “well-tolerated”.

For `O=C1c2ccccc2C(Cc2ccncc2)(Cc2ccncc2)c2ccccc21` [XE991, 10,10-Bis(4-Pyridinylmethyl)-9(10H)-Anthracenone], the pEC50 with ACh release is 6.40. Besides, the neuroprotection result in series [2] is “acts as a neuroprotective agent”. This molecule also showed a negative logarithm of the IC50 (pIC50) against hERG channels of under 4.49.

With `O=C1c2ccccc2C(Cc2ccnc(C(F)(F)F)c2)(Cc2ccnc(C(F)(F)F)c2)c2ccccc21` [compound 5], at Kv7.2 channels, the “fold lower potency in Kv7.2 assay relative to DMP 543” value was ~ 100 fold. On hERG channels (thallium flux), the “hERG flux IC50” value is “inactive”.

As for `O=C1c2ccccc2C(Cc2c(F)cncc2F)(Cc2c(F)cncc2F)c2ccccc21` [compound 6], the “acid stability, percent remaining” value in “Acid stability” is reported as “no degradation”.

`O=C1c2ccccc2C(Cc2ccnnc2)(Cc2ccnnc2)c2ccccc21` [compound 7]: the “hERG flux IC50” value at hERG channels (thallium flux) is “inactive”.

Turning to `Cc1cc(CC2(Cc3ccnc(C)c3)c3ccccc3C(=O)c3ccccc32)ccn1` [compound 8], the “hERG flux IC50” value at hERG channels (thallium flux) is “inactive”.

Usually aqueous solubility stands for the dissolved amount per volume that the medium holds. One may read the solubility (kinetic) as the concentration staying in solution when a stock, usually in DMSO, is diluted into the medium. By pIC50 is commonly meant the IC50 on a negative log10 scale, so that one unit is a factor of ten. Broadly, the pEC50 is the negative decadic logarithm of the EC50, by convention in mol/L.
